Measured values as given in article PMC9437215, “Synthesis and antibacterial activity evaluation of N (7) position-modified balofloxacins” (Frontiers in Chemistry, 2022).
≈ marks a conversion by molar mass, not a printed value. Entries after “also recorded” stand apart in the source; their conditions may differ. Read-outs that look alike come from different tables or passages of the source.

Experiments:
[1] = system: MRSA, P. aeruginosa, and E. coli; assay: MIC and MBC values stated over the three strains together; type: cell-based; conditions: bound over MIC and MBC, converted to μmol/L; read-out: MIC and MBC
Experimental: (§1) The three strains of MRSA, P. aeruginosa, and E. coli used in this experiment were from clinical isolates, which were provided by the People’s Liberation Army 304 Hospital.
(§2) To evaluate the antibacterial activities of newly synthesized N (7) position modified fluoroquinolones, the minimum inhibitory (MIC) and bactericidal (MBC) concentrations of these compounds toward bacteria were measured.

MRSA [2] = assay: MIC and MBC determinations in vitro, MRSA; type: cell-based; conditions: MRSA clinical isolate; for MIC: 24 h culture
Experimental: as §1, §2

P. aeruginosa = assay: MIC and MBC determinations in vitro, P. aeruginosa; type: cell-based; conditions: P. aeruginosa clinical isolate; for MIC: 24 h culture; for MBC: solid medium 24 h
Experimental: as §1, §2

MCF-7 = assay: Cell viability assay (MTS), MCF-7; type: cell-based, human; conditions: MCF-7
Experimental: (§3) To investigate the biocompatibility of the synthesized balofloxacin derivative, the cytoxicity of 2-e on human normal cells (3T3, L-02) and tumor cells (BEL-7402, H520, A549, and MCF-7) was studied. As an experimental example human liver cells (L-02) growing in the log phase, were plated in the 96-well plate at a density of 5000 cells/well. The cells were cultured at 37°C for 24 h under 5% CO2 medium. Then different concentrations of 1e and 2-e were added, the L-02 cells were cultured at 37°C for 48 h under a 5% CO2 atmosphere. Then the medium was aspirated, 100 μL of serum-free medium and 20 μL of MTS were added into each well, and L-02 was incubated at 37°C for 1 h under a 5% CO2 atmosphere. After that, the absorbance of the solutions at 490 nm was obtained using a microplate reader and calculated cell survival rate according to the following formula: Cell survive rate(%)=(ODtest−ODblank)/(ODcontrol−ODblank)×100%.

[3] = Cell viability assay (MTS), MCF-7; type: cell-based, human; conditions: human, MCF-7 tumor cells; MCF-7, 100 μmol/L, 48 h
Experimental: as §3

[4] = Cell viability assay (MTS), BEL-7402; type: cell-based, human; conditions: human, BEL-7402 tumor cells; BEL-7402, 100 μmol/L, 48 h
Experimental: as §3

BEL-7402 = assay: Cell viability assay (MTS), BEL-7402; type: cell-based, human; conditions: BEL-7402
Experimental: as §3

L-02 = assay: Cell viability assay (MTS), L-02; type: cell-based, human; conditions: L-02
Experimental: as §3

[5] = Cell viability assay (MTS), L-02; type: cell-based, human; conditions: human, L-02 cells (normal liver cells); L-02, 100 μmol/L, 48 h
Experimental: as §3

MRSA cells = assay: Cell wall damage monitored by atomic force microscopy (AFM); type: cell-based; conditions: 10 μM, 37°C, 30 min
Experimental: To observe the structural changes in the bacterial surface after the administration of balofloxacin derivative 2-e, atomic force microscope assay was performed. The bacterial suspension was diluted with LB liquid medium to 10^7 CFU/ml. The bacterial solution and the drug solution were mixed in an equal volume so that the concentration of 1e and 2-e was 10 μM in the final solution, respectively. And after mixing, it was incubated at 37°C for 30 min, together with the control group in the same way. After that, the sample was centrifuged at 9,000 rpm for 5 min and the supernatant was discarded, while the precipitate was washed twice with physiological saline in the same volume and centrifuged at 9,000 rpm for 5 min. Finally, the bacterial sample, prepared by dispersion in the same volume of physiological saline solution, was dropped onto the surface of the mica plate (about 0.5 cm^2), dried naturally at ambient temperature, and scanned by an atomic force microscope.

H520 = assay: Cell viability assay (MTS), H520; type: cell-based, human; conditions: H520
Experimental: as §3

[6] = Cell viability assay (MTS), H520; type: cell-based, human; conditions: human, H520 tumor cells; H520, 100 μmol/L, 48 h
Experimental: as §3

3T3 = assay: Cell viability assay (MTS), 3T3; type: cell-based; conditions: 3T3
Experimental: as §3

[7] = Cell viability assay (MTS), 3T3; type: cell-based; conditions: mouse, 3T3 cells; 3T3, 100 μmol/L, 48 h
Experimental: as §3

A549 = assay: Cell viability assay (MTS), A549; type: cell-based, human; conditions: A549
Experimental: as §3

[8] = Cell viability assay (MTS), A549; type: cell-based, human; conditions: human, A549 tumor cells; A549, 100 μmol/L, 48 h
Experimental: as §3

E. coli = assay: MIC and MBC determinations in vitro, E. coli; type: cell-based; conditions: Escherichia coli, E. coli clinical isolate
Experimental: as §1, §2

MRSA [9] = assay: Time-dependent antibacterial effects in vitro; type: cell-based
Experimental: In order to further verify the antibacterial effect of the representative compound 2-e, time-dependent bactericidal activity of 2-e against MRSA was determined. This study referred to the reported methods ([Ling et al., 2015]). MRSA was cultured overnight in LB liquid and the bacterial solution at 10^9 CFU/ml tested on the machine was diluted at 1:10,000 with LB liquid medium and cultured at 37°C, 180 rpm. […] Time-dependent bacterial colonies were evaluated at 4 or 8 h intervals as follows: 100 μL of the mixture at the current time point was taken and centrifuged at 10,000 rpm for 2 min, and the pellet formed was dispersed with PBS, which was diluted by the ten-fold dilution method. 100 μL of bacterial dilution was evenly spread on LB solid medium at 37°C for 24 h. The colonies counted, according to national standards, accounted for the drug’s time-dependent antibacterial results. The same experimental operation was repeated three times independently.

Hemolytic activity = type: cell-based, rabbit; conditions: male, New Zealand white, rabbit, red cell suspension from rabbit blood; even at high concentrations (> 10^5 × MIC), 37°C, 24 h; read-out: hemolysis rate
Experimental: (§4) The animal experiment was approved by the Laboratory Animal Management Committee/Laboratory Animal Welfare Ethics Committee, Institute of Radiation Medicine, Chinese Academy of Medical Sciences (No. IRM-DWLL-2019153). Hemolysis anemia is one of the major adverse reactions of antibiotics. To assess the blood compatibility of N (7) position modified balofloxacin, the hemolytic activity of 2-e was tested. Fresh rabbit blood, obtained from the ear vein of a male New Zealand white rabbit, was diluted at a ratio of 1:20 in volume with PBS, centrifuged and resuspended in PBS at 1,000 rpm for 5 min to form an experimental red cell suspension. 500 μL drug 2-e solution and equal volumes of blood suspension were mixed in which the final drug concentration was 500, 250, 125, 62.5, 31.25, 15.62, 7.81, 3.91, 1.95, and 0.98 μg/ml, respectively, these mixtures were incubated at 37°C for 24 h. The positive control group was an equal volume of diluted blood cells mixed with an equal volume of 0.5% Triton X-100. The negative control group was mixed with an equal volume of PBS and diluted blood cells. After incubation, the mixture in a series of centrifuge tubes was centrifuged under the same conditions, and 200 μL of the supernatant was aspirated and transferred to a 96-well plate. The release of hemoglobin from the main contents was measured at A405nm using a microplate reader (Thermo, Varioskan Flash 3001, United States). Each data were from the triplicate experiments. The percentage of hemolysis in the hemolysis test was calculated according to the following formula: %Hemolysis=(A405 test sample−A405 negative control)/(A405 positive control−A405 negative control).

[10] = system: rabbit red cell suspension; assay: Hemolytic activity; type: cell-based
Experimental: as §4

COc1c(N2CCCC(N(C)C(C)=O)C2)c(F)cc2c(=O)c(C(=O)O)cn(C3CC3)c12 (stereo not drawn) [Compound 2-e, 1-Cyclopropyl-6-fluoro-8-methoxy-7-(3-(N-methylacetamido)piperidin-1-yl)-4-oxo-1,4-dihydroquinoline-3-carboxylic acid]
MBC [1]: < 12 µM
MIC (MRSA [2]): 0.0195 µg/mL (≈ 0.0452 µM)
MIC (MRSA [2]; Staphylococcus aureus, MRSA, 24 h, read-out: MIC): 0.0195 to 0.039 µg/mL (≈ 0.0452 to 0.0904 µM)
MBC (MRSA [2]; Staphylococcus aureus, MRSA, 24 h, solid medium 24 h, read-out: MBC): 0.039 µg/mL (≈ 0.0904 µM)
MIC (P. aeruginosa): 0.039 µg/mL (≈ 0.0904 µM)
MBC (P. aeruginosa): 0.078 µg/mL (≈ 0.181 µM)
MIC (P. aeruginosa; Pseudomonas aeruginosa, read-out: MIC): 0.039 µg/mL (≈ 0.0904 µM)
MBC (P. aeruginosa; Pseudomonas aeruginosa, read-out: MBC): 0.078 µg/mL (≈ 0.181 µM)
toxicity toward cell line (MCF-7): low toxicity
viability at 48 h, 100 μmol/L [3]: ≥ 80%
viability at 48 h, 100 μmol/L [4]: ≥ 80%
toxicity toward cell line (BEL-7402): low toxicity
toxicity toward cell line (L-02): low toxicity; also recorded: did not show toxicity
viability at 48 h, 100 μmol/L [5]: ≥ 80%
structural change of MRSA cells in AFM image (MRSA cells): could effectively destroy the membrane and wall of MRSA cells; also recorded: complete discharge of their contents and substantial fragmentation
toxicity toward cell line (H520): low toxicity
viability at 48 h, 100 μmol/L [6]: ≥ 80%
toxicity toward cell line (3T3): low toxicity
viability at 48 h, 100 μmol/L [7]: ≥ 80%
toxicity toward cell line (A549): low toxicity
viability at 48 h, 100 μmol/L [8]: ≥ 80%
melting point: 201.6 to 202.3 °C
MIC (E. coli; 24 h culture): 2.5 µg/mL (≈ 5.79 µM)
MBC (E. coli; solid medium 24 h): 5 µg/mL (≈ 11.6 µM)
antibacterial activity in early and late stages of the exponential growth phase (MRSA [9]; 10 × MIC, MRSA): good antibacterial activity
time-dependent antibacterial effect, early logarithmic growth phase (MRSA [9]; MRSA): bactericidal effects occurred
time-dependent antibacterial effect, late logarithmic growth phase (MRSA [9]; MRSA): bacterial inhibition occurred
log10 CFU after the first 8 h (MRSA [9]; early exponential phase, start log10 CFU 5.5, 10 × MIC): 0
hemolysis at 24 h (Hemolytic activity): ≤ 5%
hemolytic activity [10]: not hemolytic
